Assay [1] concerns the target Receptor tyrosine-protein kinase erbB-2 (Homo sapiens, UniProt P04626). The assay is described as follows: Inhibition of HER2 by flash plate based radioactive enzyme assay.
Assay [2] deals with Serine/threonine-protein kinase PLK1 (Homo sapiens, UniProt P53350). The assay is described as follows: Inhibition of PLK1 by flash plate based radioactive enzyme assay.
Assay [3] deals with SK-OV-3. The assay is described as follows: Cytotoxicity against human SKOV3 cells overexpressing HER2 by resazurin dye reduction assay. The class given is functional, cell-based. For orientation: The colour change of resazurin is a common sign of viable cells or microbes.
Assay [4] deals with Histone deacetylase. The assay is described as follows: Inhibition of HDAC in human HeLa cell nuclear extracts. The format is cell-based.
Assay [5] can be described thus: Inhibition of PKA by flash plate based radioactive enzyme assay.
Assay [6] deals with T1, Histone deacetylase 8 (Homo sapiens, UniProt Q9BY41).
T1 sequence (Q9BY41 whole entry): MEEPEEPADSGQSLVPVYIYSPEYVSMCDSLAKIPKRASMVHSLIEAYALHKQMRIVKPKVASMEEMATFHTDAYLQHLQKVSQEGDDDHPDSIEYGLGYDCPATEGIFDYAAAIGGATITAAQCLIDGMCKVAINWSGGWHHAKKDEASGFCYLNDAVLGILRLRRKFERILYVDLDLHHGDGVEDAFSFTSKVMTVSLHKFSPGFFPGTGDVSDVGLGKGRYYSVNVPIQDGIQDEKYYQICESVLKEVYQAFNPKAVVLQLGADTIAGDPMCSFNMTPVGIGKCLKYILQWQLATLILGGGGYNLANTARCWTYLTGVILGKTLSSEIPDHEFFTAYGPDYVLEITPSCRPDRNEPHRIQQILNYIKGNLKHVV
The assay is described as follows: Inhibition of Flag tagged human recombinant HDAC8 expressed in Sf21 cells.

Assay [7] deals with A549. The assay is described as follows: Cytotoxicity against human A549 cells overexpressing HDAC by resazurin dye reduction assay.
Assay [8] deals with CAL-27. The assay is described as follows: Cytotoxicity against human CAL27 cells overexpressing EGFR by resazurin dye reduction assay.
For assay [9], the target named is Platelet-derived growth factor receptor beta (Homo sapiens, UniProt P09619). The assay is described as follows: Inhibition of PDGFRbeta by flash plate based radioactive enzyme assay.
The target of assay [10] is Histone deacetylase 3 (Homo sapiens, UniProt O15379). The assay is described as follows: Inhibition of Flag tagged human recombinant HDAC3 expressed in Sf21 cells coexpressing SMRT DAD domain.
The target of assay [11] is Cyclin-dependent kinase 2 (Homo sapiens, UniProt P24941). The assay is described as follows: Inhibition of CDK2 by flash plate based radioactive enzyme assay.
The target in assay [12] is Insulin receptor (Homo sapiens, UniProt P06213). The assay is described as follows: Inhibition of INSR by flash plate based radioactive enzyme assay.
The subject of assay [13] is A-431. The assay is described as follows: Cytotoxicity against human A431 cells overexpressing EGFR by resazurin dye reduction assay.
Assay [14] deals with SK-BR-3. The assay is described as follows: Cytotoxicity against human SKBR3 cells overexpressing HER2 by resazurin dye reduction assay.
Assay [15] concerns the target Epidermal growth factor receptor (Homo sapiens, UniProt P00533). The assay is described as follows: Inhibition of EGFR by flash plate based radioactive enzyme assay.
Assay [16] concerns the target T2, Protein deacetylase HDAC6 (Homo sapiens, UniProt Q9UBN7).
T2 sequence (Q9UBN7 whole entry): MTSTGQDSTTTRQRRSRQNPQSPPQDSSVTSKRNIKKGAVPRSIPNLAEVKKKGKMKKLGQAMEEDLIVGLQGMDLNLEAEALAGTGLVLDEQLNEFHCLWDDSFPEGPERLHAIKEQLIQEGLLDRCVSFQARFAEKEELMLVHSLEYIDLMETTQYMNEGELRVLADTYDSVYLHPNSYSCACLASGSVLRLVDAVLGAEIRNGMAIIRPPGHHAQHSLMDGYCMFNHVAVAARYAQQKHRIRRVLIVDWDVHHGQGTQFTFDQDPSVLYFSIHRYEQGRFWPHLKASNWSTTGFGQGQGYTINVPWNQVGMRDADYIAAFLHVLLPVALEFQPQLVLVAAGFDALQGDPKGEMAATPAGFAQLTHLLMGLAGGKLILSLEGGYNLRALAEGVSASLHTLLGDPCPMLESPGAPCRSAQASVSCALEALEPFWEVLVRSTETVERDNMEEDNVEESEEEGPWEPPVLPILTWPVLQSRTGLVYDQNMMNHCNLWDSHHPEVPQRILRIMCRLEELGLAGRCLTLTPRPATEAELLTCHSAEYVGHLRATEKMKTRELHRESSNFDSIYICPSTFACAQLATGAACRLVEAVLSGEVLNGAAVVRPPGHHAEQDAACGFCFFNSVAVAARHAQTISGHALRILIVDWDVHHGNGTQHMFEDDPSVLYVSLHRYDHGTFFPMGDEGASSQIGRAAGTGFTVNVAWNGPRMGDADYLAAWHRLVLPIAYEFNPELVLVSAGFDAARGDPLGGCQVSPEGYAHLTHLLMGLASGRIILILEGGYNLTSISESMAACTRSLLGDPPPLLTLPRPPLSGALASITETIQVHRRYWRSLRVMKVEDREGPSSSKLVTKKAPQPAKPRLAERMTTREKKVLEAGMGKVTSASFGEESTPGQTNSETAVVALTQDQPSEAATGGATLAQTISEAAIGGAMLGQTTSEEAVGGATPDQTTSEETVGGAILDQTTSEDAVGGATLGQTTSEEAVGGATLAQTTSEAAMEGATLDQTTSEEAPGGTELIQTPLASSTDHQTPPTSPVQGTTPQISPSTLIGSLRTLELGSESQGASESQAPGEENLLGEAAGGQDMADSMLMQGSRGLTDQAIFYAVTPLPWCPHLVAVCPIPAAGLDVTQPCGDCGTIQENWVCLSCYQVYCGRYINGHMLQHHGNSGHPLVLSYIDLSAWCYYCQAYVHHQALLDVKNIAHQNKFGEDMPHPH
The assay is described as follows: Inhibition of human recombinant HDAC6 expressed in HEK293 cells. The format is cell-based.

The subject of assay [17] is HeLa. The assay is described as follows: Cytotoxicity against human HeLa cells overexpressing HDAC by resazurin dye reduction assay.
Assay [18] deals with Histone deacetylase 1 (Homo sapiens, UniProt Q13547). The assay is described as follows: Inhibition of human recombinant HDAC1 expressed in HEK293 cells. The format is cell-based.
Assay [19] concerns the target Tyrosine-protein kinase ABL1 (Homo sapiens, UniProt P00519). The assay is described as follows: Inhibition of ABL1 by flash plate based radioactive enzyme assay.
Assay [20] in a line: Inhibition of HDAC assessed as histone H3K'9+14 acetylation levels by cell based histone H3 hyperacetylation assay.

Molecules are shown by their SMILES.

Histone deacetylase 1, sequence (Q13547 whole entry): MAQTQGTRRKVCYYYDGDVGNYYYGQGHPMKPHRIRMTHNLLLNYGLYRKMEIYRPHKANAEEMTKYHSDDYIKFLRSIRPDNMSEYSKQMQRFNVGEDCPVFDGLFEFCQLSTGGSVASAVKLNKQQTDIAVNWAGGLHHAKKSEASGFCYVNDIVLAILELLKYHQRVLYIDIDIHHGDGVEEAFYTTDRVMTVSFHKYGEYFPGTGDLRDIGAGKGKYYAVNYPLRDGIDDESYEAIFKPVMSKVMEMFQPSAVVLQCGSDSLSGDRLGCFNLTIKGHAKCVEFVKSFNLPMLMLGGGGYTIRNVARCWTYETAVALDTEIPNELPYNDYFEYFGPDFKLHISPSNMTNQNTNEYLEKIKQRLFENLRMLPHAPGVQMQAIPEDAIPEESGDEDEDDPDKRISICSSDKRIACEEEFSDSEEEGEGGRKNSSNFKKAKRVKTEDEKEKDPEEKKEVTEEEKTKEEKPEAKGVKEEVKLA
Epidermal growth factor receptor, sequence (P00533 whole entry): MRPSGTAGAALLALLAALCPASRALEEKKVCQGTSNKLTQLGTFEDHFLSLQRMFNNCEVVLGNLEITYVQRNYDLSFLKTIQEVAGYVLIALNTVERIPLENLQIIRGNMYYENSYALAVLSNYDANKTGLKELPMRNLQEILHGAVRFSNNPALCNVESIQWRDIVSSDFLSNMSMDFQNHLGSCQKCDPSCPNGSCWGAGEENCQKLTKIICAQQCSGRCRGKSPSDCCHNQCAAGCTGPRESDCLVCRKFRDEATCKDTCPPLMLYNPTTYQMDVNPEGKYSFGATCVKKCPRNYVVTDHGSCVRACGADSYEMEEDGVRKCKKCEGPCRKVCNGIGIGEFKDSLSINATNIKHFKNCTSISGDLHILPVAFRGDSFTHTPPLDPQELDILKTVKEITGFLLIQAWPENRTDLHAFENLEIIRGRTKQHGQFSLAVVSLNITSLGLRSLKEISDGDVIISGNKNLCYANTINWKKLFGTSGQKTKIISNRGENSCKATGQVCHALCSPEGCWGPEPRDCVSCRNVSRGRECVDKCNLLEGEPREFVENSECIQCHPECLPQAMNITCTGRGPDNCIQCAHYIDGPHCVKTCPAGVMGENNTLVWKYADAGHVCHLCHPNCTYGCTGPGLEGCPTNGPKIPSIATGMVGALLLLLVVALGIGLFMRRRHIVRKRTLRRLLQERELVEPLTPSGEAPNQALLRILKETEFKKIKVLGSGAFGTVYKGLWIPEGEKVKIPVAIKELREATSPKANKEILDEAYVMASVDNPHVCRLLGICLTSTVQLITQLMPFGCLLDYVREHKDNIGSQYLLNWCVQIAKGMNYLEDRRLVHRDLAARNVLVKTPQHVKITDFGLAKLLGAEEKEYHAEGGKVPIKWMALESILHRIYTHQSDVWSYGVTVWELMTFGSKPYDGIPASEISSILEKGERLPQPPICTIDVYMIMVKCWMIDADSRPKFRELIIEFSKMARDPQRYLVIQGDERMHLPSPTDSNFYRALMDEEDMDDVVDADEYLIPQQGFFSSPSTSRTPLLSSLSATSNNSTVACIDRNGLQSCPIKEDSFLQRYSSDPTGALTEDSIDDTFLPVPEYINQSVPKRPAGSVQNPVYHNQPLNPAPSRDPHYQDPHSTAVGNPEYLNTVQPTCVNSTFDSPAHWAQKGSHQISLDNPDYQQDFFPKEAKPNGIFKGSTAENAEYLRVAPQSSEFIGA
Receptor tyrosine-protein kinase erbB-2, sequence (P04626 whole entry): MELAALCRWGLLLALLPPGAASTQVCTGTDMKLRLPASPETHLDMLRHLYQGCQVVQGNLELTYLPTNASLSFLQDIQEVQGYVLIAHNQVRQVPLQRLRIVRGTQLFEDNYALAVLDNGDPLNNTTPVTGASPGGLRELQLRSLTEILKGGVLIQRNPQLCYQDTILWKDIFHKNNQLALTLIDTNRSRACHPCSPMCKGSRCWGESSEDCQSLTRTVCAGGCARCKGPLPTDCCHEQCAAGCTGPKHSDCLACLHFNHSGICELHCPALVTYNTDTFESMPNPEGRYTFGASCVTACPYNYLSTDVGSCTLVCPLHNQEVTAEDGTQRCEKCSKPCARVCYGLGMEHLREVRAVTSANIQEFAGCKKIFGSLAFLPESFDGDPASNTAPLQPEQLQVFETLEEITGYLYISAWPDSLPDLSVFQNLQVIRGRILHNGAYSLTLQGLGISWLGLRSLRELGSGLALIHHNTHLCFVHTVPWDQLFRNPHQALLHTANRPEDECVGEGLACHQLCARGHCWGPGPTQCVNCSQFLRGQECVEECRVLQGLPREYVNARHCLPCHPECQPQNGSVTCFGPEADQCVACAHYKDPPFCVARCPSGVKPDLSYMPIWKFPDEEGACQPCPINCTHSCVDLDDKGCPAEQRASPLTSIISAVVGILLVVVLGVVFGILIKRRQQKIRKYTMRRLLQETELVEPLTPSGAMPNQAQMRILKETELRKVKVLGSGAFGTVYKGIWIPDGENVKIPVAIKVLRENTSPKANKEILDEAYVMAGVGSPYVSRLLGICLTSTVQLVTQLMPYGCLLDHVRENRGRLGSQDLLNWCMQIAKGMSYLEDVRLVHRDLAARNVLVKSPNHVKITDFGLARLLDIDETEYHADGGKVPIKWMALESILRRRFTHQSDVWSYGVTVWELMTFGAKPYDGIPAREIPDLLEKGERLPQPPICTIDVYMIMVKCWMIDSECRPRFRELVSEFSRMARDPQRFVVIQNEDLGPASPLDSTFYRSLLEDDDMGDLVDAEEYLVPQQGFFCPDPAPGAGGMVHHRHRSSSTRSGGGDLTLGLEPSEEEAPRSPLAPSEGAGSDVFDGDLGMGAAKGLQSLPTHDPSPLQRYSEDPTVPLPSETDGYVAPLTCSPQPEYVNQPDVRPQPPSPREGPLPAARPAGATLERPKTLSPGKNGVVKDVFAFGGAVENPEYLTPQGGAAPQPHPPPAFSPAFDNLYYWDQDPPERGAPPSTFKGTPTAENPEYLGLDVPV
Insulin receptor, sequence (P06213 28-758 limits assumed): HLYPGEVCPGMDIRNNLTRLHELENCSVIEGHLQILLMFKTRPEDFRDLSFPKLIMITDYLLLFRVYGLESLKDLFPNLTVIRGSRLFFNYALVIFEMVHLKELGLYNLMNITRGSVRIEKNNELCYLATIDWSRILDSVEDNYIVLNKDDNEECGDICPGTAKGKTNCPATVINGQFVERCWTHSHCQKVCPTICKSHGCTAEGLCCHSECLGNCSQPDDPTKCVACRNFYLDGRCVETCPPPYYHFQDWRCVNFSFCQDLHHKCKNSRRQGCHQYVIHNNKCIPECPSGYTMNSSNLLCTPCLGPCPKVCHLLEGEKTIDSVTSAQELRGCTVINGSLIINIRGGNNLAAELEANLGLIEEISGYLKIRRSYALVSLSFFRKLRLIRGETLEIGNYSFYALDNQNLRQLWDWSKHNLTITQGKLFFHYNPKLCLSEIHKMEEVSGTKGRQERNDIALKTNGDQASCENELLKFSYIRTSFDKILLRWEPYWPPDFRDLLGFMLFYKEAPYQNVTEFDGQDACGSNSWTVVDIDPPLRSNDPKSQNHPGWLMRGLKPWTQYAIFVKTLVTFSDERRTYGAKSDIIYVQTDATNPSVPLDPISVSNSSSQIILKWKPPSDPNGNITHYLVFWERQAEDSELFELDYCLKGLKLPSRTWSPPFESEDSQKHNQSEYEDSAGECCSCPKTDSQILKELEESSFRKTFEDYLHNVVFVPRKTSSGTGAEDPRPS
Insulin receptor, sequence (P06213 763-1382 limits assumed): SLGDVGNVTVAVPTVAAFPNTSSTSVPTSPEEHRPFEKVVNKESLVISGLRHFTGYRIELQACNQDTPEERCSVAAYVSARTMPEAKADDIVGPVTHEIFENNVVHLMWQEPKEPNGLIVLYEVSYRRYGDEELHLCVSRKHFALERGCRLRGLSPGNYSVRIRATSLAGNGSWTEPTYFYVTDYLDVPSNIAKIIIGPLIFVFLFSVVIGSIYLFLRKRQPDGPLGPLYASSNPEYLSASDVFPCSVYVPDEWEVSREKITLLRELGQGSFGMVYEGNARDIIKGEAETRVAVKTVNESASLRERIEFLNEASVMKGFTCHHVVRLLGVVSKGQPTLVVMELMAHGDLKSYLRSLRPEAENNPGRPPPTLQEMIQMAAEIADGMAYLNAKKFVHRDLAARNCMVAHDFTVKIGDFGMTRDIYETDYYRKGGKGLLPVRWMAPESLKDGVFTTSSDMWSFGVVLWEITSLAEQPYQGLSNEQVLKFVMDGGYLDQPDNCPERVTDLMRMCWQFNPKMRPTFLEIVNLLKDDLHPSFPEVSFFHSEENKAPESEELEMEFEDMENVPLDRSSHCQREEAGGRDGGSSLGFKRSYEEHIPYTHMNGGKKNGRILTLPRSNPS
Serine/threonine-protein kinase PLK1, sequence (P53350 whole entry): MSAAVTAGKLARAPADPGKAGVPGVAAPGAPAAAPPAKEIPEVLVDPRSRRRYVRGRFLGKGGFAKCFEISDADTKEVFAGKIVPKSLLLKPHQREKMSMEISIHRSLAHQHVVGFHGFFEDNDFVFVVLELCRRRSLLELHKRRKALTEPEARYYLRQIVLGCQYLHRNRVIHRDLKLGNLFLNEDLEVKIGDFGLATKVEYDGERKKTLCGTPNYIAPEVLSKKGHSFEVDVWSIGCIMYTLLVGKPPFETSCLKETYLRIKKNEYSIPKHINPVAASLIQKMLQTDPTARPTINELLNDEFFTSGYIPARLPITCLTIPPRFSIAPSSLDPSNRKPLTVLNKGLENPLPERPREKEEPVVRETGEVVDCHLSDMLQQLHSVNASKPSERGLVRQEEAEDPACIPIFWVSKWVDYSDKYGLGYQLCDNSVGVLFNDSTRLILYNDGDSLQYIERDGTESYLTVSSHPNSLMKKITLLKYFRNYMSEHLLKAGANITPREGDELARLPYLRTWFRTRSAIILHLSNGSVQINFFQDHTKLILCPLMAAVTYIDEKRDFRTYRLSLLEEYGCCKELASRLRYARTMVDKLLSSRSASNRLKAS

Consider `Nc1ccccc1NC(=O)/C=C/c1ccc(-c2ccc3ncnc(Nc4ccc(OCc5cccc(F)c5)c(Cl)c4)c3c2)o1`, for which the IC50 in [1] is 0.0087 µM; in assay [2], 8.5 µM; in assay [3], 22 µM; in [4], greater than 32 µM; in [5], greater than 100 µM; in assay [6] it was greater than 32 µM. Also, the IC50 in assay [7] was 18 µM; in [8], 3.6 µM; in [9], 3.9 µM; in [10] it was greater than 32 µM; in assay [11], 1.9 µM; in assay [12], 5.5 µM. In addition, the IC50 in assay [13] was 5.3 µM; in assay [14], 0.26 µM; in assay [15], 0.026 µM; in [16], greater than 32 µM; in [17], 6.5 µM; in [18], greater than 100 µM. In assay [19], the IC50 was determined as 4.9 µM.

Take `CS(=O)(=O)CCNCc1ccc(-c2ccc3ncnc(Nc4ccc(OCc5cccc(F)c5)c(Cl)c4)c3c2)o1` [LAPATINIB]: the IC50 in assay [3] was 0.003 µM; in [5], greater than 100 µM; in assay [6] it was greater than 10 µM; in assay [8], 0.007 µM; in assay [10], greater than 10 µM; in [14], 0.002 µM. Besides, the half-inhibitory concentration (IC50) in [16] was greater than 10 µM; in assay [17] it was 5.9 µM. Also, the EC50 in assay [20] was greater than 30 µM.

Consider `Nc1ccccc1NC(=O)/C=C/c1ccc(-c2ccc3ncnc(Nc4ccc(OCc5cccc(F)c5)c(Cl)c4)c3c2)cc1`, for which the IC50 in assay [1] is 0.015 µM; in [2], 6.2 µM; in assay [3] it was 16 µM; in assay [4], greater than 32 µM; in assay [5], greater than 100 µM; in assay [6] it was greater than 32 µM. For the same compound, the IC50 was 15 µM in assay [7]; 4 µM in assay [8]; 2.7 µM in assay [9]; greater than 32 µM in [10]; 1.2 µM in [11]; 3 µM in [12]. Further, the IC50 in assay [13] is 3.6 µM; in assay [14], 17 µM; in [15], 0.029 µM; in assay [16] it was greater than 32 µM; in assay [17], 3.1 µM; in [18], greater than 100 µM. In addition, in assay [19], the IC50 is 4.9 µM. Further, the EC50 in assay [20] was greater than 100 µM.

With `O=C(NO)c1ccc(-c2ccc3ncnc(Nc4ccc(OCc5cccc(F)c5)c(Cl)c4)c3c2)o1`, the IC50 was 0.002 µM in [1]; 2 µM in assay [2]; 15 µM in [3]; 85 µM in [5]; 7.7 µM in assay [6]; greater than 16 µM in assay [7]. For the same compound, the half-inhibitory concentration (IC50) in assay [8] is 0.2 µM; in assay [9], 1 µM; in assay [10], greater than 32 µM; in assay [11] it was 0.46 µM; in assay [12] it was 1.4 µM; in [13], greater than 5 µM. In addition, the IC50 in assay [14] is 0.27 µM; in assay [15] it was 0.0039 µM; in assay [18], greater than 50 µM; in assay [19], 1.7 µM. Besides, the EC50 in assay [20] was greater than 100 µM.

For `O=C(NO)c1ccc(-c2ccc3ncnc(Nc4ccc(OCc5cccc(F)c5)c(Cl)c4)c3c2)s1`, the IC50 is 0.0035 µM in assay [1]; 3.1 µM in assay [3]; 0.43 µM in [4]; greater than 100 µM in assay [5]; 0.98 µM in assay [6]; 3.4 µM in [7]. The half-inhibitory concentration (IC50) in [8] turned out to be 0.65 µM; in assay [9] it was 1.8 µM; in [10], 0.56 µM; in assay [11], 0.2 µM; in assay [12], 1.7 µM; in assay [13], 1.9 µM. In addition, the IC50 was 0.42 µM in assay [14]; 0.0022 µM in [15]; 0.05 µM in assay [16]; 0.94 µM in assay [18]; 1.7 µM in [19]. Also, the EC50 in [20] was greater than 100 µM.

Regarding `O=C(/C=C/c1ccc(-c2ccc3ncnc(Nc4ccc(OCc5cccc(F)c5)c(Cl)c4)c3c2)cc1)NO`, the 50% inhibitory concentration (IC50) was 0.012 µM in assay [1]; 9.1 µM in assay [2]; 1.2 µM in assay [3]; greater than 32 µM in assay [4]; greater than 100 µM in assay [5]; 31 µM in [6]. In addition, the IC50 was 1.1 µM in assay [7]; 0.28 µM in assay [8]; 2.3 µM in assay [9]; greater than 32 µM in assay [10]; 0.85 µM in assay [11]; 3.7 µM in assay [12]. Also, the IC50 in [13] came out at 0.51 µM; in assay [14] it was 0.33 µM; in assay [15], 0.018 µM; in [16], 0.23 µM; in assay [17] it was 0.92 µM; in assay [18] it was 0.65 µM. The IC50 in [19] was determined as 4.9 µM. For the same compound, the EC50 in [20] is greater than 10 µM.

For `Nc1ccccc1NC(=O)CCc1ccc(-c2ccc3ncnc(Nc4ccc(OCc5cccc(F)c5)c(Cl)c4)c3c2)cc1`, the IC50 in assay [1] was 0.0047 µM; in assay [2], 27 µM; in assay [3] it was 13 µM; in assay [4], greater than 32 µM; in assay [5], greater than 100 µM; in assay [6], greater than 32 µM. Moreover, the IC50 in [7] is 22 µM; in assay [8], 0.2 µM; in assay [9] it was 4.7 µM; in [10], greater than 32 µM; in assay [11] it was 1.4 µM; in assay [12], 7.1 µM. In addition, the half-maximal inhibitory concentration (IC50) in assay [13] was 8.6 µM; in [14] it was 4.4 µM; in assay [15], 0.015 µM; in assay [16] it was greater than 32 µM; in assay [17], 8.3 µM; in assay [18] it was greater than 32 µM. Moreover, the IC50 in assay [19] was 6.9 µM.

Consider `Nc1ccccc1NC(=O)c1ccc(-c2ccc3ncnc(Nc4ccc(OCc5cccc(F)c5)c(Cl)c4)c3c2)o1`, for which the IC50 was 0.0057 µM in assay [1]; 3.9 µM in assay [2]; greater than 50 µM in [3]; greater than 100 µM in assay [4]; greater than 100 µM in [5]; greater than 32 µM in assay [6]. Besides, the IC50 is no less than 16 µM in [7]; 0.33 µM in assay [8]; 4 µM in [9]; greater than 32 µM in [10]; 15 µM in assay [11]; greater than 5 µM in assay [13]. Besides, the IC50 in assay [15] was 0.0029 µM; in assay [16], greater than 10 µM; in assay [17], 8 µM; in assay [18] it was greater than 50 µM; in assay [19] it was 4.5 µM. Moreover, the EC50 in assay [20] is greater than 100 µM.

As usually defined, the IC50 is the concentration needed to halve the response being measured. Broadly, the EC50 is the concentration needed to bring the measured effect to its halfway point.

(Values after ChEMBL document CHEMBL1629443 (J Med Chem, 2010).)
